Experimental findings from paper PMC10823733, “Promising antibacterial efficacy of arenicin peptides against the emerging opportunistic pathogen Mycobacterium abscessus” (Journal of Biomedical Science, 2024) are described below.

Read-outs that look alike come from different tables or passages of the source. Positions of bridges follow the written chain, without caps; N, C: chain ends. Non-standard residues stand in square brackets, D forms with d. Residues, ends and D or L forms follow the SMILES beside them. Abu = CC[C@H](N)C(=O)O A value given as a limit tells only on which side of the number the result lay.

Series [1] is classed as cell-based, human. As to the method:
(§1) The toxicity of each peptide was evaluated on human cell lines using a resazurin assay as previously described. Human lung epithelial cells BEAS-2B (ATCC CRL-9609), liver cells HepG2 (ATCC HB-8065), and kidney cells A498 (ATCC HTB-44) were used. All cells were cultured in Dulbecco's modified essential medium (DMEM) supplemented with 10% heat-inactivated fetal calf serum (FBS, Thermo Fisher Scientific), and 1% L-glutamine (Thermo Fisher Scientific) (DMEM^FBS) at 37 °C in a 5% CO2 incubator to subconfluent concentrations. Cells were detached with trypsin–EDTA solution (Thermo Fisher Scientific), and around 1 × 10^4 cells/well were seeded in 96-well flat-bottom microplates (Greiner Bio-One) with a lid, and cultured for additional 48–72 h at 37 °C and 5% CO2 until cell confluence. The medium was removed, and 100 µL of serial two-fold dilutions of the peptides in DMEM^FBS were added to each well. Following a 48 h-incubation period at 37 °C and 5% CO2, cell viability was evaluated using the resazurin assay as described above. Fluorescence of the resazurin metabolite resorufin (λex/λem = 530/590 nm) was measured after 2 h incubation at 37 °C and 5% CO2 in the dark, with a microplate reader (Biotek, Synergy Mx, Colmar, France). The cytotoxic concentration of peptide leading to 50% cell death as compared to the control was defined as the CC50, and was determined by fitting the RFU% sigmoidal dose–response curves in Kaleidagraph 4.2 software (Synergy Software). All experiments were conducted in triplicate.

In series [2] the test system is human erythrocytes. The series is classed as cell-based. As to the method:
The hemolytic activity of each peptide was determined as previously described. Briefly, human erythrocytes (red blood cells, hRBC; Divbioscience, Ulvenhout, Netherlands) were washed 2-times with sterile phosphate buffered saline (PBS; Thermo Fisher Scientific) and pelleted by centrifugation at 800 rpm for 5 min; then resuspended in DMEM^FBS to a final erythrocyte concentration of 8% (v/v). Then, 100 µL of this hRBC solution was distributed to each well of sterile 96-well flat-bottom microplates (Greiner Bio-One) containing serial two-fold dilutions of arenicin, arenicin-Abu derivative or controls in DMEM^FBS to a final volume of 200 µL. After 1 h incubation at 37 °C, microplates were centrifuged at 800 rpm for 5 min. Then, 100 µL of supernatant were carefully transferred to a new 96-well microplate, and OD405 corresponding to the release of hemoglobin was measured using a microplate reader (Biotek, Synergy Mx, Colmar, France). DMEM^FBS and Triton-X100 at 0.1% (v/v) were used as negative (i.e., 0% hemolysis) and positive (i.e., 100% hemolysis) controls, respectively. The concentration of peptide leading to 10% and 50% of hemolysis compared to the positive control was defined as the HC10 and HC50, respectively, and was determined by fitting the dose–response curves in Kaleidagraph 4.2 software (Synergy Software). All experiments were done in triplicate.

A short description of series [3]: Cytotoxic assay on human cells (resazurin). The note with it: A498, 48 h exposure. The series is classed as cell-based. As to the method: as §1
(In general: Resazurin is reduced to fluorescent resorufin, in cell work by metabolically active cells.)

The format of series [4] is cell-based, human. As to the method:
as §1
The source holds these as a separate data set.

The CC50 is the concentration at which the toxic effect on the cells reaches its halfway point. As a reminder, the HC50 is the concentration that lyses half of the red blood cells. Take `CC[C@H](C)[C@@H]1NC(=O)[C@H](CCCNC(=N)N)NC(=O)[C@H](C(C)C)NC(=O)[C@H](Cc2ccc(O)cc2)NC(=O)[C@H](C)NC(=O)[C@H](Cc2ccc(O)cc2)NC(=O)[C@H](C(C)C)NC(=O)[C@@H](NC(=O)[C@H](Cc2c[nH]c3ccccc23)NC(=O)[C@@H](N)CCCNC(=N)N)CSSC[C@@H](C(=O)N[C@@H](Cc2c[nH]c3ccccc23)C(=O)O)NC(=O)[C@H](CCCNC(=N)N)NC(=O)[C@H](CCCNC(=N)N)NC(=O)[C@H](Cc2ccc(O)cc2)NC(=O)[C@H](CCCNC(=N)N)NC(=O)[C@H](C(C)C)NC(=O)[C@H](CC(C)C)NC(=O)[C@H](C(C)C)NC(=O)CNC(=O)[C@H](CCCNC(=N)N)NC1=O` [Ar-2] (H-RWCVYAYVRIRGVLVRYRRCW-OH; disulfide 3-20): the half-maximal cytotoxic concentration (CC50) was more than 100 µM in series [1], 37.7 ± 1.1 µM in series [3] and more than 100 µM in series [4]. The HC50 in series [2] is listed as 29.2 µM. In series [2] (red cells of human, 1 h), the HC10 is recorded as 4.9 ± 0.7 µM.
On to `CC[C@H](NC(=O)[C@H](CCCNC(=N)N)NC(=O)[C@H](CCCNC(=N)N)NC(=O)[C@H](Cc1ccc(O)cc1)NC(=O)[C@@H]1CSSC[C@H](NC(=O)[C@@H](NC(=O)[C@H](Cc2ccc(O)cc2)NC(=O)[C@H](Cc2c[nH]c3ccccc23)NC(=O)[C@H](CC)NC(=O)[C@H](Cc2ccccc2)NC(=O)CN)C(C)C)C(=O)N[C@@H](C(C)C)C(=O)N[C@@H](Cc2ccc(O)cc2)C(=O)N[C@@H](CCCNC(=N)N)C(=O)N[C@@H](CC(N)=O)C(=O)NCC(=O)N[C@@H](C(C)C)C(=O)N[C@@H](CCCNC(=N)N)C(=O)N[C@@H](C(C)C)C(=O)N1)C(=O)N[C@@H](CC(N)=O)C(=O)O` [Ar-3(7–16)] (H-GF[Abu]WYVCVYRNGVRVCYRR[Abu]N-OH; disulfide 7-16), for which the CC50 in series [1] was more than 100 µM; in series [3] it was 37.7 ± 1.2 µM; in series [4], more than 100 µM. Further, the HC10 in series [2] (red cells of human, 1 h) is 41.1 ± 4.3 µM. In series [2] (red cells of human, 1 h), the HC50 is given as more than 100 µM.
Turning to `CC[C@H](NC(=O)[C@H](CCCNC(=N)N)NC(=O)[C@H](CCCNC(=N)N)NC(=O)[C@H](Cc1ccc(O)cc1)NC(=O)[C@H](CCCNC(=N)N)NC(=O)[C@@H](NC(=O)[C@H](CC(C)C)NC(=O)[C@@H](NC(=O)CNC(=O)[C@H](CCCNC(=N)N)NC(=O)[C@@H](NC(=O)[C@H](CCCNC(=N)N)NC(=O)[C@@H](NC(=O)[C@H](Cc1ccc(O)cc1)NC(=O)[C@H](C)NC(=O)[C@H](Cc1ccc(O)cc1)NC(=O)[C@@H](NC(=O)[C@H](CC)NC(=O)[C@H](Cc1c[nH]c2ccccc12)NC(=O)[C@@H](N)CCCNC(=N)N)C(C)C)C(C)C)[C@@H](C)CC)C(C)C)C(C)C)C(=O)N[C@@H](Cc1c[nH]c2ccccc12)C(=O)O` [Ar-2-Abu] (H-RW[Abu]VYAYVRIRGVLVRYRR[Abu]W-OH), the CC50 was more than 100 µM in series [1], 92.1 ± 2.3 µM in series [3] and more than 100 µM in series [4]. Also, the HC10 in series [2] (red cells of human, 1 h) worked out at 15.4 ± 1.0 µM. In series [2] (red cells of human, 1 h), the HC50 was more than 100 µM.
